Source: BindingDB's records for doi:10.7270/Q22R3Q4F (Broad Institute, 2010)

Biological target: T1, Alkanal monooxygenase alpha chain (Vibrio harveyi, UniProt P07740)
T1 sequence (P07740 whole entry): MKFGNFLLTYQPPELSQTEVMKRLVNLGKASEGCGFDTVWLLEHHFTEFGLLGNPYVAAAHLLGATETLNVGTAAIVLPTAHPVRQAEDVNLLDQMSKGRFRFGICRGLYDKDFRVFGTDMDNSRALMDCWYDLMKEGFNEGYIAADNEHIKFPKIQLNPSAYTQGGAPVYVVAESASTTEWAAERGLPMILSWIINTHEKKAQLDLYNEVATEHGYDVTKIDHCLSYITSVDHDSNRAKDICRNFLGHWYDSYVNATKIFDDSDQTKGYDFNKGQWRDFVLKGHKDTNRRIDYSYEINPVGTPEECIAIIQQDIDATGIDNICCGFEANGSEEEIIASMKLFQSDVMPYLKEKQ
Assay: bacterial growth suppression, V. harveyi, absorbance, dose retest, confirmation (AID 2723)

Row | Compound | EC50
1 | CCCc1ccc(S(=O)(=O)N(C)S(=O)(=O)c2ccc(F)cc2)cc1 [N-(4-fluorophenyl)sulfonyl-N-methyl-4-propylbenzenesulfonamide] | 7.78 µM
2 | Cc1cccc(NS(=O)(=O)c2ccc(Oc3ccccc3)cc2)n1 [SMR000071466] | > 160 µM
3 | CN(C)S(=O)(=O)c1ccc(NC(=S)NC(=O)Cc2ccccc2)cc1 [N-[[4-(dimethylsulfamoyl)phenyl]carbamothioyl]-2-phenyl-ethanamide] | > 160 µM
4 | C=Cn1c(C(=O)O)ccc1-c1ccc(CC)cc1 | > 160 µM
5 | CCc1ccc(S(=O)(=O)Nc2ccc(Br)cn2)cc1 [MLS001211346] | > 160 µM
6 | COc1cc(NC(=O)CN2C(=O)NC(c3ccccc3)(c3ccccc3)C2=O)cc(OC)c1 [MLS001176525] | > 160 µM
7 | Cn1cnc(S(=O)(=O)Nc2ccc(OC(F)(F)F)cc2)c1 [SMR000314513] | > 160 µM
